Measured values published in US20100298141A1, “SUBSTITUTED PYRIDINE N-OXIDE HERBICIDES” (E. I. DU PONT DE NEMOURS AND COMPANY, priority 2007, published 2010).

What was measured:
cocklebur = experiment: Test C pre-/postemergence test; assay type: in vivo, Xanthium strumarium
Summary of the method: (§1)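 Seeds were planted and treated preemergence with test chemical in a non-phytotoxic solvent mixture containing surfactant. Postemergence applications of the same formulation went onto plants 2 to 18 cm tall (1- to 4-leaf stage). A dash marks no test result.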

umbrella sedge = experiment: Test C flooded paddy test; assay type: in vivo, Cyperus difformis; details: Flood
Summary of the method: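 Visual injury ratings against untreated controls, taken 13 to 15 days after compound was added to paddy water standing 3 cm above the soil.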

pigweed = experiment: Test C pre-/postemergence test; assay type: in vivo, Amaranthus retroflexus; details: Preemergence
Summary of the method: as §1

barnyardgrass = experiment: Test A pre-/postemergence greenhouse test; assay type: in vivo, Echinochloa crus-galli; details: for Barnyardgrass plant response rating: 0 to 100 scale
Summary of the method: (§2)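 Pots of loam–sand soil sown with the test species are sprayed preemergence on the soil surface; emerged seedlings (1–2 leaves, 2–10 cm) are sprayed postemergence at the same time. The vehicle is a non-phytotoxic solvent mixture with surfactant. Injury is scored visually after ~10 d in greenhouse.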

soybean = experiment: Test C pre-/postemergence test; assay type: in vivo, Glycine max; details: 62 g ai/ha, Preemergence; scale 0 to 100
Summary of the method: as §1

Italian ryegrass = experiment: Test C pre-/postemergence test; assay type: in vivo, Lolium multiflorum; details: Preemergence
Summary of the method: as §1

yellow nutsedge = experiment: Test C pre-/postemergence test; assay type: in vivo, Cyperus esculentus; details: Preemergence
Summary of the method: as §1

woolly cupgrass = experiment: Test C pre-/postemergence test; assay type: in vivo, Eriochloa villosa; details: Preemergence
Summary of the method: as §1

green foxtail = experiment: Test C pre-/postemergence test; assay type: in vivo, Setaria viridis; details: Preemergence
Summary of the method: as §1

morningglory [1] = experiment: Test C pre-/postemergence test; assay type: in vivo, Ipomoea coccinea; details: Preemergence
Summary of the method: as §1

corn = experiment: Test C pre-/postemergence test; assay type: in vivo, Zea mays
Summary of the method: as §1

crabgrass = experiment: Test C pre-/postemergence test; assay type: in vivo, Digitaria sanguinalis; details: Preemergence
Summary of the method: as §1

kochia = experiment: Test C pre-/postemergence test; assay type: in vivo, Kochia scoparia; details: Preemergence
Summary of the method: as §1

wheat = experiment: Test C pre-/postemergence test; assay type: in vivo, Triticum aestivum; details: Preemergence
Summary of the method: as §1

[2] = system: common (oilseed) sunflower; experiment: Test C pre-/postemergence test; assay type: in vivo, Helianthus annuus; details: Preemergence
Summary of the method: as §1

blackgrass = experiment: Test C pre-/postemergence test; assay type: in vivo, Alopecurus myosuroides
Summary of the method: as §1

morningglory [3] = experiment: Test A pre-/postemergence greenhouse test; assay type: in vivo, Ipomoea spp.; details: for Morningglory plant response rating: 0 to 100 scale
Summary of the method: as §2

[4] = 62 g ai/ha, Preemergence, scale 0 to 100
[5] = Preemergence, 31 g ai/ha, scale 0 to 100 (0 no effect, 100 complete control)
[6] = preemergence, 125 g ai/ha, scale 0 (no effect) to 100 (complete control)
[7] = 31 g ai/ha, scale 0 to 100 (0 no effect, 100 complete control)
[8] = Postemergence, 125 g ai/ha, 0 is no effect, 100 is complete control
[9] = Postemergence, 500 g ai/ha, 0 is no effect, 100 is complete control
[10] = Preemergence, 125 g ai/ha, 0 no effect, 100 complete control
[11] = Preemergence, 500 g ai/ha, 0 to 100 scale where 0 is no effect and 100 is complete control

SMILES: Cn1nc(C(F)(F)F)c(C[S+]([O-])c2cccc[n+]2[O-])c1OCC(F)(F)F (racemic) [Compound 28]
- Cocklebur plant response rating (cocklebur; [4]): 10
- Plant response rating, Cocklebur (cocklebur; [5]): 0
- Plant response rating (0 to 100), Cocklebur (cocklebur; Preemergence, 250 g ai/ha): 65
- Cocklebur plant response rating (cocklebur; [6]): 50
- Plant response rating, Sedge, Umbrella (umbrella sedge; [7]): 75
- Plant response rating, Sedge, Umbrella (umbrella sedge; 62 g ai/ha, scale 0 to 100, 0 no effect, 100 complete control, 13 to 15 days): 95
- Plant response rating, Sedge, Umbrella (umbrella sedge; 125 g ai/ha, scale 0 to 100, 0 no effect, 100 complete control, 13 to 15 days): 100
- Plant response rating, Sedge, Umbrella (umbrella sedge; 250 g ai/ha, scale 0 to 100, 0 no effect, 100 complete control, 13 to 15 days): 100
- Pigweed plant response rating (pigweed; 62 g ai/ha, scale 0 to 100): 100
- Plant response rating, Pigweed (pigweed; [7]): 100
- Barnyardgrass plant response rating (barnyardgrass; [8]): 80
- Barnyardgrass plant response rating (barnyardgrass; [9]): 90
- Barnyardgrass plant response rating (barnyardgrass; [10]): 90
- Plant response rating, Barnyardgrass (barnyardgrass; [11]): 100
- Soybean plant response rating (soybean): 95
- Ryegrass, Italian plant response rating (Italian ryegrass; 62 g ai/ha, scale 0 to 100): 85
- Plant response rating, Ryegrass, Italian (Italian ryegrass; [7]): 80
- Nutsedge, Yellow plant response rating (yellow nutsedge; 62 g ai/ha, scale 0 to 100): 80
- Plant response rating, Nutsedge, Yellow (yellow nutsedge; [7]): 80
- Cupgrass, Woolly plant response rating (woolly cupgrass; 62 g ai/ha, scale 0 to 100): 100
- Plant response rating, Cupgrass, Woolly (woolly cupgrass; [7]): 70
- Plant response rating (0 to 100), Cupgrass, Woolly (woolly cupgrass; 250 g ai/ha): 100
- Foxtail, Green plant response rating (green foxtail; 62 g ai/ha, scale 0 to 100): 100
- Plant response rating, Foxtail, Green (green foxtail; [7]): 100
- Plant response rating (0 to 100), Foxtail, Green (green foxtail; 250 g ai/ha): 100
- Morningglory plant response rating (morningglory [1]; 62 g ai/ha, scale 0 to 100): 100
- Plant response rating, Morningglory (morningglory [1]; [7]): 40
- Corn plant response rating (corn; [4]): 85
- Plant response rating, Corn (corn; [5]): 30
- Plant response rating (0 to 100), Corn (corn; Preemergence, 250 g ai/ha): 100
- Corn plant response rating (corn; [6]): 100
- Crabgrass, Large plant response rating (crabgrass; 62 g ai/ha, scale 0 to 100): 100
- Plant response rating, Crabgrass, Large (crabgrass; [7]): 100
- Plant response rating (0 to 100), Crabgrass, Large (crabgrass; 250 g ai/ha): 100
- Kochia plant response rating (kochia; 62 g ai/ha, scale 0 to 100): 100
- Plant response rating, Kochia (kochia; [7]): 100
- Wheat plant response rating (wheat; 62 g ai/ha, scale 0 to 100): 40
- Plant response rating, Wheat (wheat; [7]): 0
- Sunflower plant response rating ([2]; 62 g ai/ha, scale 0 to 100): 85
- Plant response rating, Sunflower [2, 7]: 50
- Blackgrass plant response rating (blackgrass; [4]): 100
- Plant response rating, Blackgrass (blackgrass; [5]): 100
- Plant response rating (0 to 100), Blackgrass (blackgrass; Preemergence, 250 g ai/ha): 100
- Blackgrass plant response rating (blackgrass; [6]): 100
- Morningglory plant response rating (morningglory [3]; [8]): 60
- Morningglory plant response rating (morningglory [3]; [9]): 80
- Morningglory plant response rating (morningglory [3]; [10]): 60
- Plant response rating, Morningglory (morningglory [3]; [11]): 90
